# Source: patent US20220401360A1, “Milrinone Composition and Method for Administering Same” (Vanderbilt University, priority 2015, published 2022)
# “And” between values parts separate entries of the source, which are not always exact repeats. Equal entries are not always repeated. Where two headings read alike, the source gives them in different places.
# How the values were obtained:
# [1] = tested on: post-operative CF-LVAD patients; test: Perioperative hemodynamics (right heart catheterization / indwelling pulmonary artery catheter) with inhaled milrinone; assay type: in vivo, human
# Procedure: (§1) Methods. The present inventors evaluated fixed dose nebulized iMil delivered into a ventilator circuit for 24 hours in 10 post-operative CF-LVAD (HeartMate-II=10) patients. Tolerability (arrhythmias, hypotension and hypersensitivity reaction), efficacy (hemodynamic), pharmacokinetics (plasma milrinone levels) and cost data were collected.
# (§2) Secondary end points were designed to assess the efficacy, cost effectiveness and pharmacokinetic profile of inhaled milrinone therapy. Efficacy endpoints included hospital and intensive care unit (ICU) length of stay, days on inotropes, mortality at 30 days and changes in right ventricular stroke work index (RSVWi) and right heart catheterization and echocardiographic parameters from baseline values. Right heart catheterization was performed during the hospitalization before LVAD implantation and included the following parameters: right atrial pressure (RAP), mean pulmonary artery pressure (mPAP), pulmonary artery systolic pressure (PASP), cardiac index (CI) and cardiac output (CO). Echocardiographic data was collected retrospectively from echocardiograms closest to LVAD implantation date (studies performed >1 month before surgery were not included) and prospectively obtained within 72 hours after LVAD implantation. Echocardiographic parameters included: left ventricular end diastolic volume (LVEDV), left ventricular end diastolic dimension (LVEDd), cardiac output (CO), PASP, qualitative RV function, and tricuspid annular plane systolic excursion (TAPSE).
# Delivery of inhaled milrinone was initiated five minutes before the first weaning attempt from cardiopulmonary bypass after LVAD implantation in the operating suite. Intraoperative transesophageal echocardiography was performed and analyzed by a single cardiac anesthesiologist, certified in the interpretation of intraoperative echocardiography. Prior to initiation of inhaled milrinone, blood samples were obtained and analyzed for baseline plasma levels of milrinone. Patient arrival in the ICU immediately after LVAD implantation was defined as ‘time zero.’ Further blood samples to determine plasma milrinone levels were obtained at 1, 4, 8, 12 and 24 hours after arrival to the ICU. Hemodynamic values from indwelling pulmonary artery catheter and routine vital signs were also obtained at 1, 4, 8, 12 and 24 hour intervals. Patients received inhaled milrinone for a maximum of 24 hours or until the patient was extubated (if less than 24 hours). Final hemodynamic values were obtained 1 hour after extubation or cessation of inhaled milrinone therapy. All patients underwent a transthoracic echocardiogram 48-72 hours after cessation of inhaled milrinone.
# [2] = literature refs [17, 18]; cited from earlier work
# [3] = tested on: post-operative CF-LVAD patients; test: Tolerability / safety primary end point of inhaled milrinone (arrhythmias, hypotension, hypersensitivity, death); assay type: in vivo; conditions: for Death while receiving inhaled milrinone therapy: 10 patients
# Procedure: as §1
# The primary end point was safety, which included documentation of 1) new atrial arrhythmias, lasting greater than 30 seconds or resulting in hemodynamic instability (mean arterial pressure (MAP)<60 mmHg or requiring medical intervention) 2) sustained ventricular tachycardia (VT) lasting greater than 30 seconds, not related to an LVAD suction event or any ventricular arrhythmia resulting in hemodynamic instability (sustained hypotension with a MAP <60 mmHg not related to secondary causes such as acute blood loss or tamponade) and 3) hypersensitivity reaction to milrinone leading to systemic hypotension (MAP<60 mmHg or requiring medical intervention), bronchospasm or rash 4) Death by 30 days.
# [4] = tested on: post-operative CF-LVAD patients; test: Hospital and ICU length of stay, days on inotropes; assay type: in vivo, human; conditions: inhaled milrinone group
# Procedure: as §2
# [5] = tested on: post-operative CF-LVAD patients; test: Echocardiographic parameters before vs after LVAD implantation with inhaled milrinone; assay type: in vivo, human
# Procedure: Secondary end points were designed to assess the efficacy, cost effectiveness and pharmacokinetic profile of inhaled milrinone therapy. […] Right heart catheterization was performed during the hospitalization before LVAD implantation and included the following parameters: right atrial pressure (RAP), mean pulmonary artery pressure (mPAP), pulmonary artery systolic pressure (PASP), cardiac index (CI) and cardiac output (CO). […] Echocardiographic parameters included: left ventricular end diastolic volume (LVEDV), left ventricular end diastolic dimension (LVEDd), cardiac output (CO), PASP, qualitative RV function, and tricuspid annular plane systolic excursion (TAPSE). Delivery of inhaled milrinone was initiated five minutes before the first weaning attempt from cardiopulmonary bypass after LVAD implantation in the operating suite. Intraoperative transesophageal echocardiography was performed and analyzed by a single cardiac anesthesiologist, certified in the interpretation of intraoperative echocardiography. Prior to initiation of inhaled milrinone, blood samples were obtained and analyzed for baseline plasma levels of milrinone. […] All patients underwent a transthoracic echocardiogram 48-72 hours after cessation of inhaled milrinone.
# [6] = Plasma milrinone levels (HPLC) during inhaled milrinone after CF-LVAD implantation; assay type: in vivo, human; conditions: for concentration at 0 h / concentration at 1 h / concentration at 4 h / concentration at 8 h / concentration at 12 h / concentration at 24 h: human, plasma, inhaled, 6 mg/h
# Procedure: Blood samples to determine plasma milrinone levels were obtained at baseline, 1, 4, 8, 12 and 24 hours after initiation of inhaled milrinone. Plasma milrinone levels were determined by ultra-violet high liquid chromatography (HPLC) method [14].
# Delivery of inhaled milrinone was initiated five minutes before the first weaning attempt from cardiopulmonary bypass after LVAD implantation in the operating suite. […] Prior to initiation of inhaled milrinone, blood samples were obtained and analyzed for baseline plasma levels of milrinone. Patient arrival in the ICU immediately after LVAD implantation was defined as ‘time zero.’ Further blood samples to determine plasma milrinone levels were obtained at 1, 4, 8, 12 and 24 hours after arrival to the ICU. […] Patients received inhaled milrinone for a maximum of 24 hours or until the patient was extubated (if less than 24 hours).
# [7] = Characterization of inhaled milrinone: nebulization degradation profile (mass spectrometry); assay type: physicochemical; conditions: vibrating mesh nebulizer connected to a mechanical ventilator circuit
# Procedure: Inhaled milrinone validation studies were performed in order to characterize inhaled milrinone aerosol particle size, evaluate nebulization degradation profile, and quantify drug delivery using a vibrating mesh nebulizer connected to a mechanical ventilator circuit. […] A pharmaceutical grade impactor was used to determine median aerodynamic particle size and HPLC was used to determine the amount of milrinone collected at the distal end of the experimental endotracheal tube [15]. Based on this analysis, we prepared a solution of milrinone diluted in 0.9% saline to a final concentration of 0.5 mg/ml to be delivered via continuous infusion by an Alaris® infusion pump set at a fixed rate of 12 ml/hr connected to an Areogen Solo (Aeroneb,® Galway, Ireland) vibrating mesh nebulizer and Aeroneb Pro-X nebulizer control unit (Aerogen, Galway, Ireland). The nebulizer was connected to a mechanical ventilator (Servo-I, Maquet Inc. Wayne N.J.) with a dual heated wire ventilator circuit (Teleflex Hudson RCI, Research Triangle Park, N.C.) proximal to the heated humidifier (Teleflex Hudson Neptune, Research Triangle Park, N.C.). Despite continuous nebulization, delivery of the aerosolized drug product occurred in an ‘intermittent-continuous’ fashion based on the mechanical ventilator respiratory rate. All inhaled milrinone product was administered by a licensed respiratory therapist.
# [8] = while on inhaled milrinone therapy, p<0.009
structure (smiles),measurement,setting,value
"Cc1[nH]c(=O)c(C#N)cc1-c1ccncc1 [inhaled milrinone, milrinone]","Right Atrial Pressure, mean, Post milrinone","[1]; 1 hour after cessation of inhaled milrinone, Pre-VAD RHC 13.75",25.75 mmHg
same,"Mean Pulmonary Artery Pressure, mean, Post milrinone","[1]; 1 hour after cessation, Pre-VAD RHC 39.5",27 mmHg
same,"Pulmonary Artery Systolic Pressure, mean, Post milrinone","[1]; 1 hour after cessation, Pre-VAD RHC 56.33",38.75 mmHg
same,"Right Atrial Pressure, mean, ICU arrival","[1]; ICU arrival after LVAD implantation, inhaled milrinone started before weaning from bypass, Pre-VAD RHC 13.75",13.33 mmHg
same,"Mean Pulmonary Artery Pressure, mean, ICU arrival","[1]; ICU arrival, Pre-VAD RHC 39.5",28.5 mmHg
same,"Pulmonary Artery Systolic Pressure, mean, ICU arrival","[1]; ICU arrival, Pre-VAD RHC 56.33",36.00 mmHg
same,"Right Atrial Pressure, Mean on milrinone","[1]; during inhaled milrinone, Pre-VAD RHC 13.75",13.53 mmHg
same,"Mean Pulmonary Artery Pressure, Mean on milrinone","[1]; during inhaled milrinone, Pre-VAD RHC 39.5",25.88 mmHg
same,"Pulmonary Artery Systolic Pressure, Mean on milrinone","[1]; during inhaled milrinone, Pre-VAD RHC 56.33",36.25 mmHg
same,Invasive mean pulmonary artery pressure from baseline to during iMil therapy,[1]; p=0.017,improved
same,"RVSWi, mean, 1 hour after milrinone cessation","[1]; preoperative mean 571, p=0.179",383 mmHg-mL/m^2
same,"RVSWi, median, 1 hour after milrinone cessation","[1]; preoperative median 453, p=0.179",326 mmHg-mL/m^2
same,Accepted therapeutic range of plasma milrinone,[2],100 to 300 ng/mL
same,Death while receiving inhaled milrinone therapy,[3],No deaths occurred
same,Death while receiving inhaled milrinone therapy,[3]; listed as iMil,not observed
same,"Ventricular tachycardia events, number (%)","[3]; human, in vivo",3 (30%)
same,"Non-sustained VT, number of patients/events","[3]; human, in vivo, 24 h",1
same,"Sustained VT, number of patients/events","[3]; human, in vivo, 24 h",2
same,Deaths in the study group 30 days after CF-LVAD implantation,"[3]; institutional 30 day death rate 12% (12/102), p=0.60",0/10
same,Rate of ventricular arrhythmias during inhaled milrinone therapy,"[3]; n=3 of 10, INTERMACS data base 36%, p=0.99",30%
same,Patients requiring veno-arterial ECMO support,"[3]; within hours of LVAD implantation, no absolute cause identified",1
same,Median ICU length of stay,"[4]; institutional 5 days, p=0.49",5 days
same,Median total days on inotrope support,"[4]; institutional 6 days, p=0.08",9 days
same,Median total hospital length of stay,"[4]; institutional 28 days, p=0.26",33 days
same,Qualitative RV function after LVAD implantation vs pre-LVAD implant,[5]; p=0.347,not significantly different
same,TAPSE after LVAD implantation vs pre-LVAD implant,[5]; p=0.846,not significantly different
same,LVED volume (echocardiography) after LVAD implantation vs pre-LVAD implant,[5]; [8],significant decreases
same,LVIDd (echocardiography) after LVAD implantation vs pre-LVAD implant,[5]; [8],significant decreases
same,PASP (echocardiography) after LVAD implantation vs pre-LVAD implant,[5]; [8],significant decreases
same,Mean plasma milrinone levels at baseline,"[6]; baseline, fixed dose nebulized iMil, 10 post-operative CF-LVAD patients",74.2 ± 35.4 ng/mL
same,concentration at 0 h,"[6]; Table 3 mean of patients, 0 hrs, read-out: Plasma milrinone level, Mean, 0 hrs",114 ng/mL
same,concentration at 1 h,"[6]; Table 3 mean of patients, 1 hrs, read-out: Plasma milrinone level, Mean, 1 hrs",133 ng/mL
same,concentration at 4 h,"[6]; Table 3 mean of patients, 4 hrs, read-out: Plasma milrinone level, Mean, 4 hrs",149 ng/mL
same,concentration at 8 h,"[6]; Table 3 mean of patients, 8 hrs, read-out: Plasma milrinone level, Mean, 8 hrs",213 ng/mL
same,concentration at 12 h,"[6]; Table 3 mean of patients, 12 hrs, read-out: Plasma milrinone level, Mean, 12 hrs",176 ng/mL
same,concentration at 24 h,"[6]; Table 3 mean of patients, 24 hrs, read-out: Plasma milrinone level, Mean, 24 hrs",173 ng/mL
same,concentration at 0 h,"[6]; Table 3 median of patients, 0 hrs, read-out: Plasma milrinone level, Median, 0 hrs",75 ng/mL
same,concentration at 1 h,"[6]; Table 3 median of patients, 1 hrs, read-out: Plasma milrinone level, Median, 1 hrs",114 ng/mL
same,concentration at 4 h,"[6]; Table 3 median of patients, 4 hrs, read-out: Plasma milrinone level, Median, 4 hrs",117 ng/mL
same,concentration at 8 h,"[6]; Table 3 median of patients, 8 hrs, read-out: Plasma milrinone level, Median, 8 hrs",227 ng/mL
same,concentration at 12 h,"[6]; Table 3 median of patients, 12 hrs, read-out: Plasma milrinone level, Median, 12 hrs",160 ng/mL
same,concentration at 24 h,"[6]; Table 3 median of patients, 24 hrs, read-out: Plasma milrinone level, Median, 24 hrs",137 ng/mL
same,concentration at 1 h,"[6]; 1 hour, read-out: Mean plasma milrinone levels at 1 hour",111 ± 70.9 ng/mL
same,concentration at 4 h,"[6]; 4 hour, read-out: Mean plasma milrinone levels at 4 hour",136 ± 41.5 ng/mL
same,concentration at 8 h,"[6]; 8 hour, read-out: Mean plasma milrinone levels at 8 hour",205 ± 86.7 ng/mL
same,concentration at 12 h,"[6]; 12 hour, read-out: Mean plasma milrinone levels at 12 hour",177 ± 61.3 ng/mL
same,concentration at 24 h,"[6]; 24 hour, read-out: Mean plasma milrinone levels at 24 hour",188 ± 106 ng/mL
same,"Plasma milrinone level, 0 hrs","[6]; individual patients 1-10, 0 hrs, inhaled milrinone 0.5 mg/ml at 12 ml/hr, prior IV milrinone stopped 6 h (Patient 1) or >12 h before surgery",69.93 ng/mL and 65.54 ng/mL and 87.08 ng/mL and 138.22 ng/mL and 392.92 ng/mL and 20.85 ng/mL and 80.03 ng/mL and 57.67 ng/mL
same,"Plasma milrinone level, 1 hrs","[6]; individual patients 1-10, 1 hrs, continuous inhaled milrinone 0.5 mg/ml at 12 ml/hr",239.86 ng/mL and 115.38 ng/mL and 106.94 ng/mL and 111.96 ng/mL and 12.54 ng/mL and 157.04 ng/mL and 326.72 ng/mL and 81.31 ng/mL and 18.53 ng/mL and 158.4 ng/mL
same,"Plasma milrinone level, 4 hrs","[6]; individual patients 1-10, 4 hrs, continuous inhaled milrinone",113.74 ng/mL and 112.71 ng/mL and 114.96 ng/mL and 92.16 ng/mL and 112.06 ng/mL and 188.04 ng/mL and 267.11 ng/mL and 154.31 ng/mL and 118.34 ng/mL and 216.26 ng/mL
same,"Plasma milrinone level, 8 hrs","[6]; individual patients 1-10, 8 hrs, continuous inhaled milrinone",268.28 ng/mL and 115.66 ng/mL and 134 ng/mL and 273.14 ng/mL and 91.67 ng/mL and 349.39 ng/mL and 284.52 ng/mL and 158.8 ng/mL and 197.89 ng/mL and 255.72 ng/mL
same,"Plasma milrinone level, 12 hrs","[6]; individual patients 1-10, 12 hrs, continuous inhaled milrinone",133.77 ng/mL and 152.27 ng/mL and 248.58 ng/mL and 254.31 ng/mL and 89.91 ng/mL and 167.3 ng/mL and 153.12 ng/mL and 205.26 ng/mL
same,"Plasma milrinone level, 24 hrs","[6]; individual patients 1-10, 24 hrs, continuous inhaled milrinone",117.04 ng/mL and 364.15 ng/mL and 101.94 ng/mL and 100.88 ng/mL and 156.98 ng/mL and 197.73 ng/mL
same,Plasma milrinone levels during inhaled milrinone therapy (within the accepted therapeutic milrinone range),"[6]; inhaled milrinone therapy, statement in words",100 to 300 ng/mL
same,New drug formation or degradation products after nebulization (mass spectrometry),[7],did not identify new drug formation or degradation products
